A word on the MIC: it is the least concentration at which growth counts as inhibited.

The structures appear in SMILES notation. ≈ marks a conversion by molar mass, not a printed value. Where two headings read alike, the source gives them in different places. Where only a bound is given, the exact number is not on record here.

The values that follow come from patent publication US10723741B1, “DNA polymerase IIIC inhibitors and use thereof” (Acurx Pharmaceuticals, LLC, priority 2018, dated 2020).

Type in all cases: cell-based
For experiment [1], the system named is Staphylococcus aureus NRS384 (MRSA). The experiment can be described thus: Broth microdilution MIC, S. aureus NRS384 (MRSA). Conditions: Staphylococcus aureus, broth microdilution, 37° C., 20 hours. An outline of the steps: (§1)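 Broth microdilution in strain-specific test medium with ~5.0×10^5 cfu/ml inoculum, 1% DMSO and two-fold compound dilutions from 64 to 0.0625 μg/ml. Plates were held 20 hours at 37° C in ambient air. S. pneumoniae colonies were grown beforehand on blood agar in 5% CO2.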

In experiment [2] the test system is Staphylococcus aureus ATCC 29213 (MSSA). In words: Broth microdilution MIC, S. aureus ATCC 29213 (MSSA). The following applies: broth microdilution, 37° C., 20 hours, read-out: MIC S. aureus ATCC 29213 (MSSA). The gist of the method: as §1
A general note: In broth dilution the organism is exposed to a series of concentrations in liquid medium.

The subject of experiment [3] is Enterococcus faecalis ATCC 29212. In words: Broth microdilution MIC, E. faecalis ATCC 29212. Conditions: ATCC29212, broth microdilution, 37° C., 20 hours, read-out: MIC E. faecalis ATCC 29212. An outline of the steps: as §1
Experiment [4] has as its system Enterococcus faecium ATCC 700221 (VRE). In words: Broth microdilution MIC, E. faecium ATCC 700221 (VRE). Conditions: Enterococcus faecium, broth microdilution, 37° C., 20 hours. An outline of the steps:
as §1

The test system of experiment [5] is Streptococcus pneumoniae ATCC 49619. In words: Broth microdilution MIC, S. pneumoniae ATCC 49619. Conditions: ATCC49619, broth microdilution, 37° C., 20 hours, read-out: MIC S. pneumoniae ATCC 49619. An outline of the steps: as §1
Experiment [6] has as its system Bacillus subtilis ATCC 6633. In words: Broth microdilution MIC, B. subtilis ATCC 6633. The following applies: ATCC6633, broth microdilution, 37° C., 20 hours, read-out: MIC B. subtilis ATCC 6633. An outline of the steps: as §1
The subject of experiment [7] is Escherichia coli ATCC 25922. In words: Broth microdilution MIC, E. coli ATCC 25922 (MHIIB w & w/o 4 mM EDTA). Conditions: broth microdilution, 37° C., 20 hours; for MIC: Escherichia coli, ATCC25922, without EDTA, read-out: MIC E. coli ATCC 25922; for MIC E. coli ATCC 25922 + 4 mM EDTA: with 4 mM EDTA. An outline of the steps: as §1
[8] abbreviates: read-out: MIC E. faecium ATCC 700221 (VRE).

In the case of `CN(CCn1ncc2nc(NCc3ccc(Cl)c(Cl)c3)[nH]c(=O)c21)C(=O)c1cc(Cl)nnc1Cl` [Compound 85, 3,6-dichloro-N-(2-(5-((3,4-dichlorobenzyl)amino)-7-oxo-6,7-dihydro-1H-pyrazolo[4,3-d]pyrimidin-1-yl)ethyl)-N-methylpyridazine-4-carboxamide], the MIC was 8 µg/mL (≈ 14.8 µM) in experiment [1] (read-out: MIC NRS 384 (MRSA)); 8 µg/mL (≈ 14.8 µM) in experiment [2]; 8 µg/mL (≈ 14.8 µM) in experiment [3]; 4 µg/mL (≈ 7.38 µM) in experiment [4] (setting [8]); 8 µg/mL (≈ 14.8 µM) in experiment [5]; 4 µg/mL (≈ 7.38 µM) in experiment [6]. Besides, the minimum inhibitory concentration (MIC) in experiment [7] was above 64 µg/mL. Further, the “MIC E. coli ATCC 25922 + 4 mM EDTA” value in experiment [7] turned out to be 16 µg/mL.

Take `O=C(NCCn1ncc2nc(NCc3ccc(Cl)c(Cl)c3)[nH]c(=O)c21)c1cnoc1` [Compound 86, N-(2-(5-((3,4-dichlorobenzyl)amino)-7-oxo-6,7-dihydro-1H-pyrazolo[4,3-d]pyrimidin-1-yl)ethyl)isoxazole-4-carboxamide]: the minimal inhibitory concentration (MIC) in experiment [1] (read-out: MIC NRS 384 (MRSA)), in experiment [2], in experiment [3], in experiment [4] (setting [8]), in experiment [5] and in experiment [6] was above 64 µg/mL throughout. Besides, in experiment [7], the MIC was above 64 µg/mL. Besides, in experiment [7], the “MIC E. coli ATCC 25922 + 4 mM EDTA” value is above 64 µg/mL.

`CN(CCn1ncc2nc(NCc3ccc(Cl)c(Cl)c3)[nH]c(=O)c21)C(=O)c1cc(O)nnc1Cl` [Compound 87, 3-chloro-N-(2-(5-((3,4-dichlorobenzyl)amino)-7-oxo-6,7-dihydro-1H-pyrazolo[4,3-d]pyrimidin-1-yl)ethyl)-6-hydroxy-N-methylpyridazine-4-carboxamide]: the MIC in experiment [1] (read-out: MIC NRS 384 (MRSA)) is above 64 µg/mL; in experiment [2], 64 µg/mL (≈ 122 µM); in experiment [3], 32 µg/mL (≈ 61.1 µM); in experiment [4] (setting [8]), 32 µg/mL (≈ 61.1 µM); in experiment [5], 8 µg/mL (≈ 15.3 µM); in experiment [6] it was 64 µg/mL (≈ 122 µM). The MIC in experiment [7] was above 64 µg/mL. Further, in experiment [7], the “MIC E. coli ATCC 25922 + 4 mM EDTA” value is above 64 µg/mL.

In the case of `O=c1[nH]c(NCc2ccc(Cl)c(Cl)c2)nc2cnn(CCOCCO)c12` [Compound 88, 5-((3,4-dichlorobenzyl)amino)-1-(2-(2-hydroxyethoxy)ethyl)-1H-pyrazolo[4,3-d]pyrimidin-7(6H)-one], the MIC in experiment [1] (read-out: MIC NRS 384 (MRSA)) is 4 µg/mL (≈ 10 µM); in experiment [2] it was 4 µg/mL (≈ 10 µM); in experiment [3] it was 4 µg/mL (≈ 10 µM); in experiment [4] (setting [8]), 2 µg/mL (≈ 5.02 µM); in experiment [5] it was 2 µg/mL (≈ 5.02 µM); in experiment [6], 2 µg/mL (≈ 5.02 µM). Moreover, the minimal inhibitory concentration (MIC) in experiment [7] was above 64 µg/mL. The “MIC E. coli ATCC 25922 + 4 mM EDTA” value in experiment [7] is above 64 µg/mL.

For the molecule `O=c1[nH]c(NCc2ccc(Cl)c(Cl)c2)nc2cnn(CCCCO)c12` [Compound 89, 5-((3,4-Dichlorobenzyl)amino)-1-(4-hydroxybutyl)-1H-pyrazolo[4,3-d]pyrimidin-7(6H)-one], the MIC in experiment [1] (read-out: MIC NRS 384 (MRSA)) was found to be 2 µg/mL (≈ 5.23 µM); in experiment [2] it was 4 µg/mL (≈ 10.5 µM); in experiment [3] it was 4 µg/mL (≈ 10.5 µM); in experiment [4] (setting [8]), 1 µg/mL (≈ 2.62 µM); in experiment [5], 2 µg/mL (≈ 5.23 µM); in experiment [6], 1 µg/mL (≈ 2.62 µM). For the same molecule, the MIC in experiment [7] was above 64 µg/mL. Moreover, the “MIC E. coli ATCC 25922 + 4 mM EDTA” value in experiment [7] is 64 µg/mL.

As to `CC(=O)OCCCCn1ncc2nc(NCc3ccc(Cl)c(Cl)c3)[nH]c(=O)c21` [Compound 90, 4-(5-((3,4-Dichlorobenzyl)amino)-7-oxo-6,7-dihydro-1H-pyrazolo[4,3-d]pyrimidin-1-yl)butyl acetate], the MIC in experiment [1] (read-out: MIC NRS 384 (MRSA)) is 1 µg/mL; in experiment [1] (MHIIB, read-out: MIC against S. aureus NRS 384 (MRSA)), at most 1 µg/mL; in experiment [2], 2 µg/mL; in experiment [3], 2 µg/mL; in experiment [4] (setting [8]), 1 µg/mL; in experiment [4] (MHIIB, read-out: MIC against E. faecium ATCC 700221 (VRE)), at most 1 µg/mL. In addition, the MIC in experiment [5] is 2 µg/mL; in experiment [6], 0.5 µg/mL; in experiment [7], above 64 µg/mL. The “MIC E. coli ATCC 25922 + 4 mM EDTA” value in experiment [7] was above 64 µg/mL.

`O=c1[nH]c(NCc2ccc(Cl)c(Cl)c2)nc2cnn(Cc3nccs3)c12` [Compound 91, 5-((3,4-Dichlorobenzyl)amino)-1-(thiazol-2-ylmethyl)-1H-pyrazolo[4,3-d]pyrimidin-7(6H)-one]: the MIC in experiment [1] (read-out: MIC NRS 384 (MRSA)) worked out at 2 µg/mL (≈ 4.91 µM); in experiment [2], 4 µg/mL (≈ 9.82 µM); in experiment [3] it was 4 µg/mL (≈ 9.82 µM); in experiment [4] (setting [8]) it was 2 µg/mL (≈ 4.91 µM); in experiment [5], 4 µg/mL (≈ 9.82 µM); in experiment [6] it was 1 µg/mL (≈ 2.46 µM). Besides, the MIC in experiment [7] is above 64 µg/mL. In addition, in experiment [7], the “MIC E. coli ATCC 25922 + 4 mM EDTA” value was determined as 32 µg/mL.

Turning to `O=c1[nH]c(NCc2ccc(Cl)c(Cl)c2)nc2cnn(Cc3cocn3)c12` [Compound 92, 5-((3,4-Dichlorobenzyl)amino)-1-(oxazol-4-ylmethyl)-1H-pyrazolo[4,3-d]pyrimidin-7(6H)-one], the minimum inhibitory concentration (MIC) was determined as 4 µg/mL (≈ 10.2 µM) in experiment [1] (read-out: MIC NRS 384 (MRSA)); 4 µg/mL (≈ 10.2 µM) in experiment [2]; 4 µg/mL (≈ 10.2 µM) in experiment [3]; 2 µg/mL (≈ 5.11 µM) in experiment [4] (setting [8]); 4 µg/mL (≈ 10.2 µM) in experiment [5]; 2 µg/mL (≈ 5.11 µM) in experiment [6]. Further, in experiment [7], the MIC is above 64 µg/mL. In addition, the “MIC E. coli ATCC 25922 + 4 mM EDTA” value in experiment [7] came to 8 µg/mL.

Take `O=C1CCC(Cn2ncc3nc(NCc4ccc(Cl)c(Cl)c4)[nH]c(=O)c32)N1` (centres unmarked) [Compound 93, 5-((3,4-Dichlorobenzyl)amino)-1-((5-oxopyrrolidin-2-yl)methyl)-1H-pyrazolo[4,3-d]pyrimidin-7(6H)-one]: the MIC in experiment [1] (read-out: MIC NRS 384 (MRSA)) turned out to be 16 µg/mL (≈ 39.3 µM); in experiment [2], 8 µg/mL (≈ 19.6 µM); in experiment [3] it was 8 µg/mL (≈ 19.6 µM); in experiment [4] (setting [8]) it was 4 µg/mL (≈ 9.82 µM); in experiment [5], 2 µg/mL (≈ 4.91 µM); in experiment [6], 4 µg/mL (≈ 9.82 µM). In addition, in experiment [7], the MIC was above 64 µg/mL. In addition, in experiment [7], the “MIC E. coli ATCC 25922 + 4 mM EDTA” value was 64 µg/mL.

On to `O=C1CCCN1CCn1ncc2nc(NCc3ccc(Cl)c(Cl)c3)[nH]c(=O)c21` [Compound 94, 5-((3,4-Dichlorobenzyl)amino)-1-(2-(2-oxopyrrolidin-1-yl)ethyl)-1H-pyrazolo[4,3-d]pyrimidin-7(6H)-one], for which the MIC in experiment [1] (read-out: MIC NRS 384 (MRSA)) is 16 µg/mL (≈ 38 µM); in experiment [2], 16 µg/mL (≈ 38 µM); in experiment [3] it was 16 µg/mL (≈ 38 µM); in experiment [4] (setting [8]), 4 µg/mL (≈ 9.49 µM); in experiment [5] it was 4 µg/mL (≈ 9.49 µM); in experiment [6], 8 µg/mL (≈ 19 µM). In experiment [7], the MIC was above 64 µg/mL. Besides, the “MIC E. coli ATCC 25922 + 4 mM EDTA” value in experiment [7] is above 64 µg/mL.

Take `CCCCOCCOCCOCCn1ncc2nc(NCc3ccc(Cl)c(Cl)c3)[nH]c(=O)c21` [Compound 95, 1-(2-(2-(2-Butoxyethoxy)ethoxy)ethyl)-5-((3,4-dichlorobenzyl)amino)-1H-pyrazolo[4,3-d]pyrimidin-7(6H)-one]: the MIC amounted to 4 µg/mL (≈ 8.03 µM) in experiment [1] (read-out: MIC NRS 384 (MRSA)); 4 µg/mL (≈ 8.03 µM) in experiment [2]; 16 µg/mL (≈ 32.1 µM) in experiment [3]; 4 µg/mL (≈ 8.03 µM) in experiment [4] (setting [8]); 8 µg/mL (≈ 16.1 µM) in experiment [5]; 2 µg/mL (≈ 4.01 µM) in experiment [6]. Also, the minimum inhibitory concentration (MIC) in experiment [7] was above 64 µg/mL. Besides, the “MIC E. coli ATCC 25922 + 4 mM EDTA” value in experiment [7] was above 64 µg/mL.

With `O=c1[nH]c(NCc2ccc(Cl)c(Cl)c2)nc2cnn(C[C@H]3NC[C@H](O)[C@@H](O)[C@@H]3O)c12` [Compound 96, 5-((3,4-Dichlorobenzyl)amino)-1-(((2R,3R,4R,5 S)-3,4,5-trihydroxypiperidin-2-yl)methyl)-1H-pyrazolo[4,3-d]pyrimidin-7(6H)-one], the MIC in experiment [1] (read-out: MIC NRS 384 (MRSA)) was above 64 µg/mL; in experiment [2], above 64 µg/mL; in experiment [3], above 64 µg/mL; in experiment [4] (setting [8]), 64 µg/mL (≈ 141 µM); in experiment [5] it was 64 µg/mL (≈ 141 µM); in experiment [6] it was above 64 µg/mL. Besides, the MIC in experiment [7] was above 64 µg/mL. For the same molecule, the “MIC E. coli ATCC 25922 + 4 mM EDTA” value in experiment [7] was 32 µg/mL.
